According to US5103018A, “Mitomycin derivatives” (Kyowa Hakko Kogyo Kabushiki Kaisha, priority 1986, dated 1992):
≈ marks a conversion by molar mass, not a printed value. Where two headings read alike, the source gives them in different places.

Assays:
[1] = system: Streptococcus faecalis ATCC 10541; assay: Minimum inhibitory concentration, agar dilution method, SF; format: cell-based; conditions: Enterococcus faecalis
Text: (§1) Certain Compounds I were selected. Table 3 indicates their anti-bacterial activities in terms of their minimum inhibitory concentration (μg/ml), determined by the agar dilution method effected at a pH of 7.0. In this table, the microorganisms used are abbreviated as follows:
SF: Streptococcus faecalis ATCC 10541

[2] = system: Staphylococcus aureus ATCC 6583P; assay: Minimum inhibitory concentration, agar dilution method, SA; format: cell-based; conditions: ATCC6583P
Text: as §1
SA: Staphylococcus aureus ATCC 6583P

[3] = system: Proteus vulgaris ATCC 6897; assay: Minimum inhibitory concentration, agar dilution method, PV; format: cell-based
Text: as §1
PV: Proteus vulgaris ATCC 6897

[4] = system: Klebsiella pneumoniae ATCC 10031; assay: microbe, parasite or virus in culture; format: cell-based; conditions: ATCC10031, pH 7, read-out: minimum inhibitory concentration, KP
Text: Certain Compounds I were selected. […] In this table, the microorganisms used are abbreviated as follows:
KP: Klebsiella pneumoniae ATCC 10031

Sarcoma 180 solid tumour = assay: animal or person; format: in vivo, mice (ddy strain); conditions: Mus musculus, Sarcoma-180, ip, 168 h, read-out: ED50 ip
Text: (§2) Certain compounds were selected from Compounds I. The following Table 4 indicates anti-tumour activity against Sarcoma 180 solid tumour (ED50), acute toxicity (LD50) and effects on the peripheral leucocytes (WBC4000) of each compound.
(1) Effect against Sarcoma 180 solid tumour:
5×10^6 cells of Sarcoma 180 solid tumour cells were abdominally implanted into male mice of ddy strain. 7 days after this, ascites cells were sampled. The cells were washed once with a sterilized physiological solution of sodium chloride and were used to prepare a cell suspension containing 5×10^7 cells per ml. On each occasion, 0.1 ml of the cell suspension was subcutaneously implanted into the right armpit of a male mouse (ddy strain; body weight 20±2 g). 24 hours after the implantation of the tumour cells, the test compound which was dissolved in a physiological solution of sodium chloride with or without addition of Tween 80 was abdominally administered to each mouse of a group consisting of 5 animals at a does of 0.1-0.2 ml. The anti-tumour activity was determined as follows:
7 days after the implantation, the major axis (a) and the minor axis (b) of the tumour were measured to calculate a value of "a×b^2 /2" which corresponds to the volume of the tumour. The anti-tumour activity was expressed by T/C viz. the ratio of the volume of the tumours (T) of the group of animals administered with the test compound to the corresponding volume of tumours (C) of the untreated animals.
(2) Determination of ED50 :
The term ED50 denotes the administered amount needed for reducing the volume of Sarcoma 180 solid tumours in the animals to 50% on the basis of the corresponding volume of Sarcoma 180 solid tumours in control (untreated) animals.
On graph paper, T/C was indicated by an arithmetic scale on the longitudinal axis and the administered amount of test compound was indicated by a logarithmic scale on the lateral axis.

Acute toxicity = format: in vivo, mice (ddy); conditions: mouse, in vivo, ip; for LD50 at 336 h: ddy mice, single i.p., 14 days, Behren Korber's method; for selectivity ratio: read-out: (C.I.)* = (LD50/ED50)/[(LD50/ED50) of MMC1]
Description: as §2
Each animal of the test group consisting of 5 ddy mice was once administered (i.p.) with a test compound. […] The LD50 was determined by Behren Korber's method.

in vivo = format: in vivo, mice (ddy strain); conditions: mouse, in vivo, ip; read-out: (WBC4000/ED50)* = (WBC4000/ED50)/[(WBC4000/ED50) of MMC1]
Description: as §2
(4) Effect upon the number of the peripheral leucocytes:
Sarcoma 180 solid tumour cells (5×10^6) were subcutaneously implanted into the right armpit of each mouse (body weight 20±2 g) of a group consisting of 5 male mice (ddy strain). 24 hours after implantation,a test compound was abdominally administered to each mouse. 4 days later, blood (each 0.02 ml) was collected from the suborbital plexus vein of each tumour-carrying mouse. The collected sample of blood was dispersed in 9.98 ml of Cell-kit Seven solution. One drop of saponin solution was added to the sample to dissolve erythrocytes and then a microcell counter was used to measure the number of leucocytes. On graph paper, the number of leucocytes was indicated on the y-axis by an arithmetic scale and the does of the test compound was indicated on the x-axis by a logarithmic scale.
The relationship between the number of peripheral leucocytes and the dosage of the test compound was plotted to obtain WBC4000 viz. the dosage corresponding to […] per mm^3 (about half of the number of leucocytes of normal mice).

P388 Leukemia = assay: Effect upon Leukemia P 388; format: in vivo, mouse (CDF1); conditions: single i.p., 33 days
Description: (5) Effect upon Leukemia P 388:
Ascites cells were collected from P388 Leukemia-carrying mouse (DBA/2) 7 days after the implantation. The number of the cells of P388 Leukemia in the sample was counted. A physiological solution of sodium chloride was sterilized and used to prepare a cell suspension containing 5×10^6 tumour cells per ml. On each occasion, 0.2 ml of the suspension containing 1×10^6 cells was implanted into the abdominal cavity of each mouse (CDF1; body weight 20~25 g). 24 hours after implantation, the test compound was once given to each mouse of a test group consisting of 6 mice by abdominal injection.
The activity of the test samples was determined by the ratio of the average survival days of the treated animals to the average survival days of untreated animals viz. ILS % (Increased Life Span).

Solubility in water = format: physicochemical; conditions: water
Escherichia coli ATCC 26 = assay: Minimum inhibitory concentration, agar dilution method, EC; format: cell-based
Text: as §1
EC: Escherichia coli ATCC 26

[5] = ATCC10541, pH 7, read-out: minimum inhibitory concentration, SF
[6] = Staphylococcus aureus, pH 7, read-out: minimum inhibitory concentration, SA
[7] = Proteus vulgaris, ATCC6897, pH 7, read-out: minimum inhibitory concentration, PV
[8] = Escherichia coli, ATCC26, pH 7, read-out: minimum inhibitory concentration, EC

SMILES	MIC [1, 5] [µg/mL]	MIC [2, 6] [µg/mL]	MIC [3, 7] [µg/mL]	MIC [4] [µg/mL]	ED50 (Sarcoma 180 solid tumour) [mg/kg]	LD50 at 336 h (Acute toxicity) [mg/kg]	selectivity ratio (Acute toxicity)	selectivity ratio (in vivo)	ILS* (ratio of ILS % to that of mitomycin C) (P388 Leukemia; dose 50 mg/kg)	solubility (Solubility in water) [mg/mL]	MIC (Escherichia coli ATCC 26; [8]) [µg/mL]	ILS* (ratio of ILS % to that of mitomycin C) (P388 Leukemia; dose 20.3 mg/kg)	ILS* (ratio of ILS % to that of mitomycin C) (P388 Leukemia; dose 25 mg/kg)	ILS* (ratio of ILS % to that of mitomycin C) (P388 Leukemia; dose 3.13 mg/kg)	MIC ([1]; ATCC10541, agar dilution method, pH 7.0, Streptococcus faecalis, read-out: minimum inhibitory concentration, SF) [µg/mL]	MIC ([2]; agar dilution method, pH 7.0, Staphylococcus aureus, read-out: minimum inhibitory concentration, SA) [µg/mL]	MIC (Escherichia coli ATCC 26; ATCC26, agar dilution method, pH 7.0, Escherichia coli, read-out: minimum inhibitory concentration, EC) [µg/mL]	MIC ([3]; ATCC6897, agar dilution method, pH 7.0, Proteus vulgaris, read-out: minimum inhibitory concentration, PV) [µg/mL]
CC1=C(NCCSSCCNC(=O)CC[C@H](N)C(=O)O)C(=O)C2=C(C1=O)N1C[C@H]3[C@H](N3C)[C@]1(O)[C@H]2COC(N)=O (stereo partly drawn) [Compound 2, 7-N-[2-[[2-(N^5 -L-glutamino)ethyl]dithio]ethyl]mitomycin D]	100 (≈ 167 µM)	50 (≈ 83.5 µM)	25 (≈ 41.8 µM)	> 100	18	90	1.55	2.14	> 1.34	> 5	–	–	–	–	–	–	–	–
CO[C@@]12[C@H](COC(N)=O)C3=C(C(=O)C(C)=C(NCCSSCCNC(=O)CC[C@@H](N)C(=O)O)C3=O)N1C[C@@H]1N[C@@H]12 [Compound 3, 7-N-[2-[[2-(N^5 -D-glutamino)ethyl]dithio]ethyl]mitomycin C]	3.1 (≈ 5.18 µM)	1.6 (≈ 2.67 µM)	0.8 (≈ 1.34 µM)	0.8 (≈ 1.34 µM)	5.7	22.5	1.46	3.02	–	> 20	50 (≈ 83.5 µM)	–	–	–	–	–	–	–
CO[C@@]12[C@H](COC(N)=O)C3=C(C(=O)C(C)=C(NCCSSCCCNC(=O)CC[C@H](N)C(=O)O)C3=O)N1C[C@@H]1N[C@@H]12 [Compound 4, 7-N-[2-[[3-(N^5 -L-glutamino)propyl]dithio]ethyl]mitomycin C]	3.1 (≈ 5.06 µM)	1.6 (≈ 2.61 µM)	3.1 (≈ 5.06 µM)	0.8 (≈ 1.31 µM)	5.1	22.5	1.52	1.27	–	> 20	250 (≈ 408 µM)	–	–	–	–	–	–	–
CO[C@@]12[C@H](COC(N)=O)C3=C(C(=O)C(C)=C(NCCSSCCCCNC(=O)CC[C@H](N)C(=O)O)C3=O)N1C[C@@H]1N[C@@H]12 [Compound 5, 7-N-[2-[[4-(N^5 -L-glutamino)butyl]dithio]ethyl]mitomycin C]	1.6 (≈ 2.55 µM)	1.6 (≈ 2.55 µM)	1.6 (≈ 2.55 µM)	0.8 (≈ 1.28 µM)	8.4	30	1.66	3.21	–	> 20	–	–	–	–	–	–	–	–
CO[C@@]12[C@H](COC(N)=O)C3=C(C(=O)C(C)=C(NCCSSCCNC(=O)[C@@H](N)CCC(=O)O)C3=O)N1C[C@@H]1N[C@@H]12 [Compound 9, 7-N-[2-[[2-(N^2 -L-glutamino)ethyl]dithio]ethyl]mitomycin C]	–	–	–	–	7.7	–	–	–	–	> 20	–	–	–	–	–	–	–	–
CO[C@@]12[C@H](COC(N)=O)C3=C(C(=O)C(C)=C(NCCSSCCNC(=O)c4cc(=O)[nH]c(=O)[nH]4)C3=O)N1C[C@@H]1N[C@@H]12 [Compound 14, 7-N-[2-[(2-orotamidoethyl)dithio]ethyl]mitomycin C]	–	–	–	–	11.5	45	1.68	1.2	–	–	–	> 2.60	–	–	–	–	–	–
CO[C@@]12[C@H](COC(N)=O)C3=C(C(=O)C(C)=C(NCCSSCCNC(=O)/C=C(C)/C=C/C=C(C)/C=C/C4=C(C)CCCC4(C)C)C3=O)N1C[C@@H]1N[C@@H]12 [Compound 15]	0.63 (≈ 0.838 µM)	0.078 (≈ 0.104 µM)	1.3 (≈ 1.73 µM)	2.5 (≈ 3.32 µM)	7.4	16.9	0.82	3	–	–	–	–	–	–	–	–	–	–
CC(=O)NCCSSCCNC1=C(C)C(=O)C2=C(C1=O)[C@H](COC(N)=O)[C@@]1(O)[C@@H]3[C@H](CN21)N3C (stereo partly drawn) [Compound 17, 7-N-[2-[(2-acetamidoethyl)dithio]ethyl]mitomycin D]	25 (≈ 48.9 µM)	> 50	> 50	–	7.3	60	2.73	2.6	–	–	–	–	> 1.78	–	–	–	–	–
CO[C@@]12[C@H](COC(N)=O)C3=C(C(=O)C(C)=C(NCCSSCCC(N)=O)C3=O)N1C[C@@H]1N[C@@H]12 [Compound 21, 7-N-[2-[(2-carbamoylethyl)dithio]ethyl]mitomycin C]	1.3 (≈ 2.61 µM)	0.63 (≈ 1.27 µM)	5 (≈ 10 µM)	1.3 (≈ 2.61 µM)	11.8	18.8	0.68	1.01	–	–	–	–	–	–	–	–	–	–
CO[C@@]12[C@H](COC(N)=O)C3=C(C(=O)C(C)=C(NCCSSCCC(=O)NC[C@H](O)c4ccc(O)c(O)c4)C3=O)N1C[C@@H]1N[C@@H]12 [Compound 32]	–	–	–	–	7.1	30	1.56	2.39	–	–	–	–	–	> 1.44	–	–	–	–
CO[C@@]12[C@H](COC(N)=O)C3=C(C(=O)C(C)=C(NCCSSCCSC(C)=O)C3=O)N1C[C@@H]1N[C@@H]12 [Compound 33, 7-N-[2-[[2-(acetylthio)ethyl]dithio]ethyl]mitomycin C]	0.039 (≈ 0.0738 µM)	0.078 (≈ 0.148 µM)	0.63 (≈ 1.19 µM)	0.63 (≈ 1.19 µM)	5.6	4.7	0.36	1.27	–	–	> 40	–	–	–	–	–	–	–
CO[C@@]12[C@H](COC(N)=O)C3=C(C(=O)C(C)=C(NCCSSCc4cn([C@H]5C[C@H](O)[C@@H](CO)O5)c(=O)[nH]c4=O)C3=O)N1C[C@@H]1N[C@@H]12 [Compound 39, 7-N-[2-[[(2'-deoxyuridin-5-yl)methyl]dithio]ethyl]mitomycin C]	–	–	–	–	34.7	75	1.37	1.5	1.83	–	–	–	–	–	–	–	–	–
CO[C@@]12[C@H](COC(N)=O)C3=C(C(=O)C(C)=C(N)C3=O)N1C[C@@H]1N[C@@H]12 [MM-C, mitomycin C, reference compound]	–	–	–	–	–	–	–	–	–	–	–	–	–	–	0.08 (≈ 0.239 µM)	0.04 (≈ 0.12 µM)	10 (≈ 29.9 µM)	0.02 (≈ 0.0598 µM)
